Test results from patent publication US6057351A, “Compounds of the 3-aryl 2,4 dioxo oxazolidine family and use thereof in cosmetic and pharmaceuticals” (Societe L'Oreal S.A., priority 1996, dated 2000).

Key:
thoracic aorta rings = test: "Potassic canal opener" type activity: in vitro relaxing power on thoracic aorta rings contracted by KCl 20 mM; type: cell-based
Protocol: Measurement of the "potassic canal opener" type activity of the 4-(5-methyl-2,4-dioxo-5-trifluoromethyl)-oxazolidin-3-yl)-2-trifluoromethylbenzonitrile by measuring in vitro the relaxing power of the molecules of thoracic aorta rings.
The experiments are carried out according to the Newgreen et al (Br. J. Pharmacol., 100, 1990, p. 605-613), Bray et al (Arch. Pharmacol., 344, 1991, p. 351-359) and Wickerden et al (Br. J. Pharmacol., 103, 1991, 1148-1152) methods.
After placing the tissues in the isolated organ tanks, they (smooth aortic muscles) are subjected to an initial tension of 2 g.
After a period of equilibration, the tissues are exposed to a potassium chloride solution (KCl, at 20 mM) in order to obtain a sustained contractile response. After stabilization of this contractile response, the relaxing activity (of the potassic canal opener type) of the molecules to be tested is evaluated in response doses.
During the experiment, two reference molecules are used: cromakalim and Minoxidil.
Results expressed in % of inhibition of the contraction provoked by the KCl at 20 mM.

androgen receiver = molecular target: T1, androgen receiver (Rattus norvegicus, UniProt P15207); test: Affinity for the androgen receiver (Schilling and Liao method), inhibition of testosterone fixation; type: binding
T1 sequence (P15207 1-902): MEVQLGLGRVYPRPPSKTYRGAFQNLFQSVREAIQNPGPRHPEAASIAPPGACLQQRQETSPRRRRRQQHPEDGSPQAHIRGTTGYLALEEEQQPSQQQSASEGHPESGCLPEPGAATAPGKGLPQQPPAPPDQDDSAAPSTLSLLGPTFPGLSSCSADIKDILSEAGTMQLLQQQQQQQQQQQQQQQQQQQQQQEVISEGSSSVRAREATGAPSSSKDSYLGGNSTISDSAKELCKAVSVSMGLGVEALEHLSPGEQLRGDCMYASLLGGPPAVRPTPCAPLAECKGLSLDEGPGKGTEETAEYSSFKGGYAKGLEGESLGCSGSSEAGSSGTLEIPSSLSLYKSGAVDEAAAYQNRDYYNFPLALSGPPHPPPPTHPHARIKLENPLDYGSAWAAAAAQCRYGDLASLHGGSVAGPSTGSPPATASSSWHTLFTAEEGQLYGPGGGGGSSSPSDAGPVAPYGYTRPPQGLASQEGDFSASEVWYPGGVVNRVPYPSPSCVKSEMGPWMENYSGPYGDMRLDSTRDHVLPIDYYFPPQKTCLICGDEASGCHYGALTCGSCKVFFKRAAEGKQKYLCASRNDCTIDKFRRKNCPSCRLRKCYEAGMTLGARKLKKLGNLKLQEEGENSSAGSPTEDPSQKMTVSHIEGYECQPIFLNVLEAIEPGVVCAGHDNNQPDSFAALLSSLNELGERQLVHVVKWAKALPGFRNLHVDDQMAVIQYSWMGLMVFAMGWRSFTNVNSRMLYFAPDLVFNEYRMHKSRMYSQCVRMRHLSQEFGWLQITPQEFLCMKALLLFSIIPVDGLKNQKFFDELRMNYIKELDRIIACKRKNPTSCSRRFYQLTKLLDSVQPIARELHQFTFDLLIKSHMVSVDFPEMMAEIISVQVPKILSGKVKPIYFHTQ
Protocol: Measuring the affinity of the 4-(5-methyl-2,4-dioxo-5-trifluoromethyl)-oxazolidin-3-yp)-2-trifluoromethylbenzonitrile for the androgen receiver.
These measurements of receiving affinity for the androgen receiver are executed according to the Schilling and Liao method, described in "The Prostate", 1984, 5.p. 581-588.
The compound is tested at several concentrations. During the experiment, the reference molecule(mibolerone) is tested at the same time at 8 concentrations in order to validate the experiment.
The results are expressed in % of inhibition of the fixation of the testosterone on its receiver. The internal reference (mibolerone) inhibits up to 50% of this fixation at a concentration of 4.3 nM.

Row | Structure (SMILES) | % of inhibition of the contraction provoked by the KCl at 20 mM (thoracic aorta rings; compound at 0.1 μM) [%] | % of inhibition of the contraction provoked by the KCl at 20 mM (thoracic aorta rings; compound at 1 μM) [%] | % of inhibition of the contraction provoked by the KCl at 20 mM (thoracic aorta rings; compound at 10 μM) [%] | activity profile (potassic canal opener / anti-androgen) (thoracic aorta rings; conclusion drawn from the results of Examples 2 and 3) | inhibition at 0.1 µM (androgen receiver; compound at 0.1 μM, read-out: % of inhibition of the fixation of the testosterone on its receiver) [%] | inhibition at 1 µM (androgen receiver; compound at 1 μM, read-out: % of inhibition of the fixation of the testosterone on its receiver) [%] | inhibition at 10 µM (androgen receiver; compound at 10 μM, read-out: % of inhibition of the fixation of the testosterone on its receiver) [%] | IC50 (androgen receiver) [nM]
1 | CC1(C(F)(F)F)OC(=O)N(c2ccc(C#N)c(C(F)(F)F)c2)C1=O (centres unmarked) [4-(5-methyl-2,4-dioxo-5-trifluoromethyl)-oxazolidin-3-yl)-2-trifluoromethylbenzonitrile] | 12 | 69 | 95 | mixed activity, with a preferred activity for the K* Agonist facet | 2 | 17 | 56 | 
2 | CC1(C)Oc2ccc(C#N)cc2C(N2CCCC2=O)C1O (centres unmarked) [Cromakalim, cromakalim] | 46 | 86 | 100 |  |  |  |  | 
3 | Nc1cc(N2CCCCC2)nc(N)[n+]1[O-] [Minoxidil, 3-oxide pyrimidine 6-piperidino 2,4-diamino] | 25 | 65 | 95 |  |  |  |  | 
4 | C[C@@H]1CC2=CC(=O)CC[C@@H]2[C@H]2CC[C@@]3(C)[C@@H](CC[C@]3(C)O)[C@@H]21 [mibolerone] |  |  |  |  |  |  |  | 4.3
